According to US20220128542A1, “TREATMENT EFFICIENCY EVALUATION” (TX MEDIC AB, priority 2019, published 2022):
Where two headings read alike, the source gives them in different places.

Tested on: brain of rats subjected to severe traumatic brain injury (sTBI)
[1] = 1 mg/kg, 2 days post-TBI, of 221 genes
[2] = 1 mg/kg, 7 days post-TBI, of 2741 genes
[3] = 5 mg/kg, 2 days post-TBI, of 221 genes
[4] = 5 mg/kg, 7 days post-TBI, of 2741 genes
[5] = 15 mg/kg, 2 days post-TBI, of 221 genes
[6] = 15 mg/kg, 7 days post-TBI, of 2741 genes
[7] = 3 repeated doses of 15 mg/kg, 7 days post-TBI, of 2741 genes
[8] = DS 1 mg/kg, day 7 following TBI, relative to TBI model
[9] = DS 5 mg/kg, day 7 following TBI, relative to TBI model
[10] = DS 15 mg/kg, day 7 following TBI, relative to TBI model

Experimental: As a starting point, a list and expression levels of molecules differentially regulated by dextran sulfate relative to a TBI model for the three different doses (1 mg/kg, 5 mg/kg and 15 mg/kg) of dextran sulfate at day 7 following TBI were established.
Male Wistar rats of 300-350 g body weight were fed with standard laboratory diet and water ad libitum in a controlled environment. As the anesthetic mixture, the animals received 35 mg/kg b.w. ketamine and 0.25 mg/kg body weight midazolam by i.p. injection. Severe traumatic brain injury (sTBI) was induced by dropping a 450 g weight from 2 m height on to the rat head that had been protected by a metal disk previously fixed on the skull, according to the “weight drop” impact acceleration model (Marmarou et al., J Neurosurg. 1994; 80: 291-300). […] At the end of each period of treatment, rats were anesthetized again and then immediately sacrificed.
LMW-DS (Tikomed AB) was provided at a stock concentration of 20 mg/ml and was kept in a temperature-monitored refrigerator at 4° C. LMW-DS aliquots were diluted to the appropriate dosing concentration in sterile saline prior to delivery of a single subcutaneous injection.
Three doses of LMW-DS were administered subcutaneously 30 minutes post-TBI. The animals were sacrificed at 2 days post-TBI. The animals were divided into the following subgroups:
Three doses of LMW-DS were administered subcutaneously 30 minutes post-TBI. The animals were sacrificed at 7 days post-TBI. The animals were divided into the following subgroups:
An in vivo craniectomy was performed on all animals during anesthesia. After carefully removing the rat's skull, the brain was exposed and removed with a surgical spatula and quickly dropped in RNALater and preserved at 4° C. for further processing.
The arrays used were the Agilent Rat expression arrays.
Statistical analysis was performed to quantitate the effect of sTBI on the brain in this model. The follow-on analyses looked at the effects of LMW-DS in this model using different iterations and algorithms. Statistical analysis was carried out using the Metaboanalyst software package. Gene expression changes of 10% with a p<0.05 were regarded as significant.

Substance: sodium salt of dextran sulfate [LMW-DS]
- genes with altered TBI-specific expression (1 mg/kg within 30 min after injury, 2 days of sTBI): 372 genes
- genes with altered TBI-specific expression (1 mg/kg within 30 min after injury, 7 days of sTBI): 3602 genes
- genes differing from healthy controls (1 mg/kg, 2 days after sTBI): 209 genes
- TBI-deregulated genes remaining deregulated relative to healthy controls [1]: 22 genes
- share of TBI-deregulated genes remaining deregulated [1]: 10%
- genes differing from healthy controls (1 mg/kg, 7 days after sTBI): 282 genes
- TBI-deregulated genes remaining deregulated relative to healthy controls [2]: 124 genes
- share of TBI-deregulated genes remaining deregulated [2]: 4.5%
- genes with altered TBI-specific expression (5 mg/kg within 30 min after TBI, 2 days of sTBI): 702 genes
- genes with altered TBI-specific expression (5 mg/kg within 30 min after TBI, 7 days of sTBI): 3852 genes
- genes differing from healthy controls (5 mg/kg, 2 days after sTBI): 258 genes
- TBI-deregulated genes remaining deregulated relative to healthy controls [3]: 51 genes
- share of TBI-deregulated genes remaining deregulated [3]: 23%
- genes differing from healthy controls (5 mg/kg, 7 days after sTBI): 398 genes
- TBI-deregulated genes remaining deregulated relative to healthy controls [4]: 169 genes
- share of TBI-deregulated genes remaining deregulated [4]: 6.1%
- genes with altered TBI-specific expression (15 mg/kg within 30 min after TBI, 2 days of sTBI): 247 genes
- genes with altered TBI-specific expression (15 mg/kg within 30 min after TBI, 7 days of sTBI): 3901 genes
- genes differing from healthy controls (15 mg/kg, 2 days after sTBI): 47 genes
- TBI-deregulated genes remaining deregulated relative to healthy controls [5]: 19 genes
- share of TBI-deregulated genes remaining deregulated [5]: 8.5%
- genes differing from healthy controls (15 mg/kg, 7 days after sTBI): 158 genes
- TBI-deregulated genes remaining deregulated relative to healthy controls [6]: 85 genes
- share of TBI-deregulated genes remaining deregulated [6]: 3.1%
- genes differing from healthy controls (3 repeated doses of 15 mg/kg, 7 days after sTBI): 234 genes
- TBI-deregulated genes remaining deregulated relative to healthy controls [7]: 116 genes
- share of TBI-deregulated genes remaining deregulated [7]: 4.25%
- AFP fold change (FC) [8]: −1.439
- ATP2A3 fold change (FC) [8]: −1.284
- ATP8A1 fold change (FC) [8]: 1.280
- BDNF fold change (FC) [8]: 1.635
- CRH fold change (FC) [8]: 1.253
- FGF1 fold change (FC) [8]: −1.366
- HBEGF fold change (FC) [8]: 1.235
- IL-17B fold change (FC) [8]: 1.863
- KITLG fold change (FC) [8]: −1.251
- LDLR fold change (FC) [8]: 1.364
- NOG fold change (FC) [8]: 1.304
- PF4 fold change (FC) [8]: −1.453
- SLC1A4 fold change (FC) [8]: 1.498
- SLC7A11 fold change (FC) [8]: 1.490
- SLC16A7 fold change (FC) [8]: 1.493
- SLC29A1 fold change (FC) [8]: −1.370
- SLC40A1 fold change (FC) [8]: −1.345
- TNFSF15 fold change (FC) [8]: 3.878
- TSLP fold change (FC) [8]: 1.389
- TTR fold change (FC) [8]: −2.531
- VAV3 fold change (FC) [8]: −1.505
- AFP fold change (FC) [9]: −1.280
- ATP2A3 fold change (FC) [9]: −1.205
- ATP8A1 fold change (FC) [9]: 1.223
- BDNF fold change (FC) [9]: 1.708
- CRH fold change (FC) [9]: 1.316
- FGF1 fold change (FC) [9]: −1.382
- HBEGF fold change (FC) [9]: 1.274
- IL-17B fold change (FC) [9]: 1.765
- KITLG fold change (FC) [9]: −1.274
- LDLR fold change (FC) [9]: 1.291
- NOG fold change (FC) [9]: 1.305
- PF4 fold change (FC) [9]: −1.331
- SLC1A4 fold change (FC) [9]: 1.531
- SLC4A1 fold change (FC) [9]: −1.442
- SLC7A11 fold change (FC) [9]: 1.469
- SLC16A7 fold change (FC) [9]: 1.441
- SLC29A1 fold change (FC) [9]: −1.377
- SLC40A1 fold change (FC) [9]: −1.338
- TNFSF15 fold change (FC) [9]: 4.302
- TSLP fold change (FC) [9]: 1.446
- TTR fold change (FC) [9]: −1.915
- VAV3 fold change (FC) [9]: −1.418
- AFP fold change (FC) [10]: −1.208
- ATP2A3 fold change (FC) [10]: −1.216
- ATP8A1 fold change (FC) [10]: 1.212
- BDNF fold change (FC) [10]: 1.557
- CRH fold change (FC) [10]: 1.293
- FGF1 fold change (FC) [10]: −1.213
- GOSR1 fold change (FC) [10]: 1.233
- HBEGF fold change (FC) [10]: 1.250
- IL36RN fold change (FC) [10]: 1.284
- IL-17B fold change (FC) [10]: 1.729
- KITLG fold change (FC) [10]: −1.261
- LDLR fold change (FC) [10]: 1.212
- NOG fold change (FC) [10]: 1.281
- PF4 fold change (FC) [10]: −1.244
- SLC1A4 fold change (FC) [10]: 1.518
- SLC4A1 fold change (FC) [10]: −1.213
- SLC7A11 fold change (FC) [10]: 1.477
- SLC16A7 fold change (FC) [10]: 1.408
- SLC29A1 fold change (FC) [10]: −1.316
- SLC40A1 fold change (FC) [10]: −1.348
- TNFSF15 fold change (FC) [10]: 3.939
- TSLP fold change (FC) [10]: 1.322
- TTR fold change (FC) [10]: −2.179
- VAV3 fold change (FC) [10]: −1.318
